Laboratory results taken from paper PMC2189693 (The Journal of Experimental Medicine, 1988).

Test system: anti-al mAb, 3-2F1
Format: binding, mouse
Settings: for Inhibition of binding of rabbit a1 Ig to anti-a1 antibody (in words): RIA with mAb 3-2F1, 24 h preincubation of inhibitor, result in words

expression of an a1 epitope (in words) (conclusion from peptide inhibition of al Ig binding to anti-al)	Substance	Inhibition of binding of rabbit a1 Ig to anti-a1 antibody (in words)
–	MQIFVKTLTGKDPGG [UB1, reference compound]	Neither the substituted peptide, SMA1, nor the control peptide, UB1, inhibited binding
each appear to define an al epitope	IT_SPTTEDTAT_YFCA [RA1]	–
–	IGYIYPNIDDSAY_SQ [SMA1]	Neither the substituted peptide, SMA1, nor the control peptide, UB1, inhibited binding
